The numbers were not newly measured in patent publication US20080311200A1, “Controlled Slow Release Formulation of Thiamine and Use Thereof in the Treatment of Pathologies Connected to Defective Process of Learning and Memorization” (BIOPROGRESS S.P.A., priority 2004, published 2008), which cites them from elsewhere.

For the series, the system named is mechanism of active transport through the intestine wall.

On to `Cc1ncc(C[n+]2csc(CCO)c2C)c(N)n1` [thiamine], for which the “concentration above which the active transport of intestinal absorption reaches saturation” value is on record as “higher than 2 μM”.
